These results are taken from publication PMC6479099, “Aminoguanidines: New leads for treatment of Giardia duodenalis infection” (International Journal for Parasitology: Drugs and Drug …, 2019).

In general, GI50 refers to the concentration that inhibits growth by half. The low end stands for more potent growth inhibition, the high end for less potent growth inhibition.

Data set [1] has as its system Giardia duodenalis BAH2c2 strain, assemblage A. In words: Resazurin reduction assay, assemblage A isolate. Type of data set: cell-based. The conditions noted are these: for MLC (minimum lethal concentration), Assemblage A: concentration at which no metabolism of resazurin was observed; for IC50: Giardia duodenalis, 24 h, read-out: IC50, Assemblage A. How it is done:
(§1) G. duodenalis (BAH2c2 and BAH12 strain) was cultivated according to the method of Clark and Diamond in Keister's modified TYI-S-33 medium, supplemented with heat inactivated foetal bovine serum (Hyclone™, Thermo Fisher Scientific, Scoresby, Victoria, Australia) at 37 °C in plastic 9 mL screw-capped test tubes (nunc, Thermo Fisher Scientific, Scoresby, Victoria, Australia). Subcultures were performed once a confluent monolayer was observed, approximately 2–3 times per week ([Clark and Diamond, 2002]).
(§2) The in-vitro compound efficacy was determined using a resazurin reduction assay as previously described ([Benere et al., 2007]). The media of confluent cultures was replaced with fresh media and the cultures were placed on ice for 40 min to detach trophozoites. Trophozoites were enumerated using a haemocytometer and 50 000 trophozoites were added to each test well of a 96 well plate. Doubling or tripling dilutions of the test compounds were added to wells beginning at 25 or 50 μM compound concentration (previously prepared in DMSO). Metronidazole and DMSO (vehicle only) were used as controls. Plates were incubated under anaerobic conditions, using anaerobic gas generating sachets, (AnaeroGen, Thermo Fisher Scientific, Scoresby, Victoria, Australia) for 24 h at 37 °C. After incubation the media was removed and replaced with an equal volume of warm PBS. Resazurin (Alamarblue, Thermo Fisher Scientific, Scoresby, Victoria, Australia) was then added at 10% of the total volume of the wells. Plates were further incubated (1.5 h) for colour development and absorbance read at 570 nm and 630 nm. The percentage resazurin reduction was then calculated using the following formula:((εoxi630 x A570) – (εoxi570 x A630))/((εred570 x C630)-([…])) x 100Where: εoxi630 = 34798, εoxi570 = 80586, A570 = absorbance at 570 nm, A630 = absorbance at 630 nm, εred570 = 155677, εred630 = 5494, C630 = absorbance of negative control well at 630 nm and C570 = absorbance of negative control well at 570 nm.
(§3) For the resazurin reduction assay the mean and standard error of the mean were determined with each assay completed in triplicate. The IC50 was calculated using the log (inhibitor) vs. normalised response – variable slope function in Graphpad Prism. For the adherence assay mean and standard error of the mean were calculated and data analysed using an unpaired t-test, relative to untreated control.
(§4) The IC50 of each compound was determined using a resazurin reduction assay, which measures the metabolic activity of cells, using the log (inhibitor) vs. normalised response – variable slope function in Graphpad Prism. The compounds were tested against an assemblage A (BAH2c2, 24 h) and an assemblage B (BAH12, 24 h) isolate (Table 1). […] The effect of the compounds on the proliferation of Giardia trophozoites (BAH2c2) was also determined.
Absorbance was measured (630 and 570 nm), percent reduction of resazurin calculated and data presented as a percentage of the growth control. Treatment groups are: square - metronidazole; triangle –NCL 099; diamond - robenidine; and circle - NCL 062. Error ± SEM, n = 3. Data represents a typical experiment. Note the break in the x-axis indicates a change in the scale of drug concentration.
(The colour change of resazurin is a common sign of viable cells or microbes.)

The subject of data set [2] is Giardia duodenalis BAH12, assemblage B. In words: Resazurin reduction assay, assemblage B isolate. The data set is classed as cell-based. The conditions noted are these: BAH12, 24 h; for IC50: Giardia duodenalis, resazurin metabolic assay. Here is the method: as §1, §2, §3, §4
The test system of data set [3] is Giardia trophozoites (BAH2c2). In words: Proliferation of Giardia trophozoites (resazurin, 96 h). Type of data set: cell-based, Giardia duodenalis. The conditions noted are these: read-out: IC50prol, Assemblage A (50% inhibition in the proliferation assay). How it is done:
The effect of the compounds on the proliferation of Giardia trophozoites was determined following the protocol outlined above, with the following modifications. The number of trophozoites was decreased to 1000 per well and the cells were incubated in the presence of each compound for 96 h at 37 °C.
as §4

In data set [4] the test system is Giardia duodenalis trophozoites. Kind of data set: Modified adherence assay. Particulars: 4 μM, 5 h exposure. The data set is classed as cell-based. Here is the method:
(§5) A second screening method, based on counting adherent trophozoites, was developed and used to validate the primary screen method, modified from earlier adherence assay protocols ([Crouch et al., 1986]). The assay was prepared in 24 well plates with plastic coverslips placed in the bottom. Trophozoites were prepared as above by placing on ice and ∼5 × 10^5 cells/mL were added to each well. Drugs prepared in DMSO were added at the required concentration, with the DMSO concentration never exceeding 1%. Assay plates were incubated for 5 h at 37 °C under anaerobic conditions, the media removed and cells adhering to the coverslips were fixed with glutaraldehyde or methanol. Once the coverslips were dry, cells were stained with a Romanowsky stain variant (Rapid stain), fixed to a glass slide and imaged at 10x or 100x magnification. Images (10x magnification) were processed with DotCount v1.2 software (http://reuter.mit.edu/, 2008–2012 ^© Martin Reuter) to count the number of cells present and data analysed using GraphPad Prism version 6.00 for Windows, GraphPad Software, La Jolla California USA, www.graphpad.com. Images (100x magnification) were assessed for obvious morphological changes.
The results for the in vitro drug efficacy studies were analysed using GraphPad Prism version 6.00 for Windows, GraphPad Software, La Jolla California USA, www.graphpad.com. For the resazurin reduction assay the mean and standard error of the mean were determined with each assay completed in triplicate. The IC50 was calculated using the log (inhibitor) vs. normalised response – variable slope function in Graphpad Prism. For the adherence assay mean and standard error of the mean were calculated and data analysed using an unpaired t-test, relative to untreated control.
Fig. 3 Inhibition of adherence of Giardia duodenalis by metronidazole (Mz), robenidine, NCL 062 and NCL 099. Cells were exposed to the compounds for 5 h before staining. Stained cells were imaged at 10x magnification and counted using DotCount™ software. Each assay was completed in triplicate and 5 images taken per sample. Top. Number of adherent trophozoites after exposure to 4 μM of each compound for 5 h; Bottom. An example of the Dotcount software identifying trophozoites at higher magnification. Left: stained trophozoites, Right: highlighted trophozoites identified by the Dotcount software. Each highlighted cell is counted individually. Error ± SEM. * p-value <0.05, ** p-value <0.0001.

Data set [5] relates to G. duodenalis trophozoites. In words: Giardia recovery assay. Type of data set: cell-based, Giardia duodenalis. Particulars: 5 h at 5x the IC50, counts at 24 and 48 h post exposure. Here is the method:
G. duodenalis trophozoites were harvested on ice as outlined above and 5 × 10^5 cells/mL were added to 1.5 mL centrifuge tubes. […] After exposure cells were collected by placing tubes on ice for 40 min followed by centrifugation at 900×g for 5 min. The supernatant was removed and cells were resuspended in 8 mL of fresh media (in a 9 mL culture tube). The number of trophozoites was counted using a haemocytometer and cells were incubated for 48 h with cell numbers being determined at 24 and 48 h.
Fig. 7 Recovery assay of Giardia duodenalis exposed to robenidine and metronidazole. Giardia trophozoites were exposed to robenidine or metronidazole for 5 h at 5x the IC50. Key: closed circle – growth control, triangle – metronidazole, square – robenidine, open circle – NCL 062, diamond – NCL 099. Cell numbers were determined at 24 and 48 h post exposure. Error ± SD.

The subject of data set [6] is Giardia duodenalis BAH2c2 strain, assemblage A. In words: Resazurin reduction assay, assemblage A isolate. The data set is classed as cell-based.
In data set [7] the test system is giardiasis. Also on record: method as in Wright et al., 2003. Particulars: ref Wright et al., 2003; cited from earlier work.
Data set [8] is described as follows: In vitro cytotoxicity, murine macrophage cells. The conditions noted are these: mouse, RAW 264.7 murine macrophage cells.
Data set [9] concerns AT region of DNA. On the set-up: method as in Nguyen et al., 2002. The conditions noted are these: ref Nguyen et al., 2002; cited from earlier work.
Data set [10] deals with Giardia trophozoites. In words: Morphology of stained trophozoites at 100x magnification. The data set is classed as cell-based, Giardia duodenalis. Here is the method:
as §5
Fig. 4 Morphological effect of Robenidine and NCL 099 on Giardia trophozoites. Giardia trophozoites were exposed to each compound for 24 h before fixation with glutaraldehyde and staining following the Diff quik protocol. A-control cells, B – cells treated with metronidazole (IC50, 2 μM), C- robendine treated cells (IC50, 2 μM), D – NCL 099 treated cells (IC50, 3 μM), E − NCL 099 treated cells (2 x IC50).

Setting [11] is: BAH2c2, 24 h, resazurin metabolic assay.
[12] abbreviates: BAH2c2, 1000 trophozoites per well.

Structures are written as SMILES. Converted amounts (≈) assume the structure as drawn. Like-named read-outs stand apart in the source and are kept apart here.

On to `Cc1ncc([N+](=O)[O-])n1CCO` [Metronidazole], for which, in data set [1] (BAH2c2, 24 h), the “MLC (minimum lethal concentration), Assemblage A” value (“MLC … Assemblage A” for short) came to 2.8 µM (≈ 0.479 µg/mL). Moreover, the IC50 in data set [1] (setting [11]) was 2 ± 1 µM; in data set [2] it was 3.8 ± 0.5 µM; in [3] (setting [12]) it was 1.7 ± 2 µM. For the same compound, in [2], the “MLC, Assemblage B” value turned out to be 16.6 µM (≈ 2.84 µg/mL). Besides, the “Effect on adherence of trophozoites” value in data set [4] is on record as “no significant effect on cell adherence”. The “Recovery of trophozoites after short-term exposure” value (“Recovery of trophozoites” below) in data set [5] is reported as “did not have any permanent effects”. Also, in data set [6], the “Time required to exhibit inhibitory activity” value came out at 24 h. The Treatment success rate in data set [7] is listed as 80–90%.

As for `C/C(=N\NC(=N)N/N=C(\C)c1ccc(Cl)cc1)c1ccc(Cl)cc1.Cl` [NCL 062, (E)-N'-((E)-1-(4-chlorophenyl)ethylidene)-2-(1-(4-chlorophenyl)ethylidene)hydrazine-1-carboximidhydrazide hydrochloride], the “MLC … Assemblage A” value in data set [1] (BAH2c2, 24 h) is 0.9 µM. The values for the IC50 in data set [1] (setting [11]), in data set [2] and in data set [3] (setting [12]) were 0.8 ± 0.6 µM, 1.8 ± 0.0008 µM and 2 ± 1.3 µM, respectively. The “MLC, Assemblage B” value in data set [2] amounted to 3.1 µM. The “Effect on adherence of trophozoites” value in [4] is listed as “complete inhibition of adherence”. Further, the “Recovery of trophozoites” value in data set [5] was “unable to recover”. For the same compound, it took 4 µM to inhibit growth in data set [8] by half (GI50).

Consider `Cl.Cl.Cl.N=C(N)c1cccc(/C=N/N=C(\N)N/N=C/c2cccc(C(=N)N)c2)c1` [CGP 40215A], for which, in [9], the “Binding to the AT region of DNA” value was “strong bond”.

On to `CCS(=O)(=O)CCn1c([N+](=O)[O-])cnc1C` [tinidazole], for which the Treatment success rate in [7] is recorded as 80–90%.

On to `CCCSc1ccc2nc(NC(=O)OC)[nH]c2c1` [Albendazole], for which the “MLC … Assemblage A” value in [1] (BAH2c2, 24 h) was 0.02 to 0.07 µM. The figures for the IC50 in data set [1] and in [3] were under 0.02 µM and 0.8 ± 0.7 µM, respectively. Further, the Reported efficacy in data set [7] is 62–95%.

Take `CC(C)(C)c1ccc(/C=N/NC(=N)N/N=C/c2ccc(C(C)(C)C)cc2)cc1.Cl` [NCL 099, N′,2-bis((E)-4-(tert-butyl)benzylidene)hydrazine-1-carboximidhydrazide hydrochloride]: the “MLC … Assemblage A” value in data set [1] (BAH2c2, 24 h) turned out to be 8.3 µM. In addition, the IC50 is 3 ± 0.3 µM in data set [1] (setting [11]), 3.3 ± 0.2 µM in [2] and 11.1 ± 0.8 µM in data set [3] (setting [12]). In addition, the “MLC, Assemblage B” value in data set [2] worked out at 5.5 µM. Also, the “Effect on adherence of trophozoites” value in data set [4] is listed as “significantly affected adherence of trophozoites at 4 μM, but did not completely inhibit adherence”. The “Recovery of trophozoites” value in data set [5] was “able to recover after short-term exposure but growth was slower”. Besides, the “Morphological effect on stained trophozoites at 2 x the IC50” value in data set [10] (2 x IC50, 100 x magnification) is recorded as “disintegration of the cell membrane”. The “Morphological effect on stained trophozoites at the IC50” value in [10] (at IC50, 100 x magnification) was “decrease in the membrane stain intensity”. In data set [8], this compound had a 50% growth inhibitory concentration (GI50) of 7.3 µM.
